Reference: patent publication US10894798B2, “Substituted dihydropyrrolopyrazole derivative” (UBE INDUSTRIES, LTD., priority 2015, dated 2021)

Tests used:
CDK7 = molecular target: T1, CDK7 (Homo sapiens, UniProt P50613); assay: CDK7 enzyme inhibition test; assay type: biochemical; details: [γ-33P]ATP, MBP substrate, 60 min preincubation at 25°C; Ki=IC50/(1+S/Km); read-out: Ki value of CDK7 inhibitory activity
T1 construct: purchased Carna Biosciences, Inc. 04-108
Method in brief: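 Commercial human CDK7 with myelin basic protein substrate in HEPES pH 7.4 buffer with DTT, Triton X-100, MgCl2; compound preincubated 60 min at 25° C, then reaction run 20 min at 30° C after adding [γ-^33P]ATP (500 μM solution). TCA-precipitated ^33P-MBP counted by scintillation; IC50 converted to Ki via Ki=IC50/(1+S/Km).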

CDK2 = molecular target: T2, CDK2 (Homo sapiens, UniProt P24941); assay: CDK2 enzyme inhibition test; assay type: biochemical; details: [γ-33P]ATP, MBP substrate; Ki=IC50/(1+S/Km); read-out: Ki value of CDK2 inhibitory activity
T2 construct: purchased Invitrogen Corp. PV3267
Experimental: The preparation of a buffer solution was performed by mixing a N-2-hydroxyethylpiperazine-N′-2-ethanesulfonic acid buffer solution (HEPES buffer solution) (pH 7.4), dithiothreitol (DTT), Triton X-100, and magnesium chloride (MgCl2). A 500 μM [γ-^33P]ATP solution was used by diluting a 10 mM ATP solution and a commercially available [γ-^33P]ATP solution (manufactured by Perkin Elmer, Inc., Code No. NEG-302H) with the buffer solution. A CDK2 solution was used by diluting commercially available CDK2 (manufactured by Invitrogen Corp., Catalog No. PV3267) with the buffer solution. A substrate solution was used by diluting myelin basic protein (MBP) with the buffer solution. As for the preparation of a reaction solution, the buffer solution, the 500 μM [γ-^33P]ATP solution, the CDK2 solution, and the substrate solution were mixed at 4° C. to obtain a reaction solution.
(§1) CDK2 enzyme reaction was performed by adding 5 μL of a test compound solution prepared with 10% DMSO/90% injectable distilled water, and 45 μL of the reaction solution in a 1.5 mL microtube at 4° C. and reacting in the microtube at 30° C. for 20 minutes in a water bath incubator. After the reaction, a 10% aqueous trichloroacetic acid (TCA) solution was added to each microtube while cooled to 4° C., and mixed in a vortex mixer to terminate the reaction. The resultant was left standing at 4° C. for 10 minutes and then centrifuged, and the supernatant was discarded. Next, a 2% aqueous trichloroacetic acid (TCA) solution was added thereto, mixed in vortex mixer, and then centrifuged, and the supernatant was discarded. This washing operation was performed twice. After the washing, precipitates were dissolved in a 1 N aqueous sodium hydroxide (NaOH) solution, and the energy quantity (radioactivity) of the reaction product was measured with a liquid scintillation counter.
The calculation of the inhibitory activity of the test compound against CDK2 was performed as a test compound concentration inhibiting 50% of the amount of ^33P bound to MBP (IC50 value) by using EXSUS (version 8.1.0, manufactured by CAC Exicare Corp.).
(§2) The calculation of a Ki value was performed according to the following calculation expression wherein S represents the concentration of ATP contained in the reaction solution, and Km represents a Michaelis-Menten constant: Ki=IC50/(1+S/Km)

PLK1 = molecular target: T3, PLK1 (Homo sapiens, UniProt P53350); assay: PLK1 enzyme (polo-like kinase) inhibition test; assay type: biochemical; details: [γ-33P]ATP, casein substrate; Ki=IC50/(1+S/Km); read-out: Ki value of PLK1 inhibitory activity
T3 construct: purchased Carna Biosciences, Inc. 05-157
T3 sequence (P53350 whole entry): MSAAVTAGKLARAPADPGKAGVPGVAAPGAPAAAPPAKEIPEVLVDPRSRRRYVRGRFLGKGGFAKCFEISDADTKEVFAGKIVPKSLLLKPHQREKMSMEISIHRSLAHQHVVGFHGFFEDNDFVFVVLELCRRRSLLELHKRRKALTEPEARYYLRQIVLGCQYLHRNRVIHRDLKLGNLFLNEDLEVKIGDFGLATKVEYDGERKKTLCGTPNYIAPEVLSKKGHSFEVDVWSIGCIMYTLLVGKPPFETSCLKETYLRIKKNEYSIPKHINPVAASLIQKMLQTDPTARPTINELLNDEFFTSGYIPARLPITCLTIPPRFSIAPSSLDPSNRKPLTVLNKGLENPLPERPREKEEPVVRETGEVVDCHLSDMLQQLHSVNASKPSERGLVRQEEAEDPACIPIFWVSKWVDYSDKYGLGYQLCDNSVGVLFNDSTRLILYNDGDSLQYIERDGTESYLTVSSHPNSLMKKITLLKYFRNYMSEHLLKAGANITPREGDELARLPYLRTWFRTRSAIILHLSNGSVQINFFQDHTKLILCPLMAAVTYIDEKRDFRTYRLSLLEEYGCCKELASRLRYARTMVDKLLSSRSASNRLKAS
Experimental: The preparation of a buffer solution was performed by mixing a 3-morpholinopropanesulfonic acid buffer solution (MOPS buffer solution) (pH 7.0), dithiothreitol (DTT), and magnesium acetate (Mg(CH3COO)2). A 1 mM [γ-^33P]ATP solution was used by diluting a 10 mM ATP solution and a commercially available [γ-^33P]ATP solution (manufactured by Perkin Elmer, Inc., Code No. NEG-302H) with the buffer solution. A PLK1 solution was used by diluting commercially available PLK1 (manufactured by Carna Biosciences, Inc., Catalog No. 05-157) with the buffer solution. A substrate solution was used by diluting casein with the buffer solution. As for the preparation of a reaction solution, the buffer solution, the 500 μM [γ-^33P]ATP solution, the PLK1 solution, and the substrate solution were mixed at 4° C. to obtain a reaction solution.
as §1, with “PLK1 enzyme reaction” for “CDK2 enzyme reaction”, “mixed in a vortex mixer,” for “mixed in vortex mixer,”
The calculation of the inhibitory activity of the test compound against PLK1 was performed as a test compound concentration inhibiting 50% of the amount of ^33P bound to casein (IC50 value) by using EXSUS (version 8.1.0, manufactured by CAC Exicare Corp.).
as §2

[1] = system: human large intestine cancer cell line (HCT-116); assay: Human large intestine cancer (HCT-116) cell growth inhibition test; assay type: cell-based; details: HCT-116, 72 h, culture for 3 days, sulforhodamine B, read-out: GI50 value, HCT-116 cell growth inhibition
Method in brief: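 HCT-116 cells were seeded at 0.5 to 2.0×10^3 cells/well in McCoy's 5A with 10% FBS and dosed with compound at 0.1% final DMSO after overnight culture. Growth was measured by sulforhodamine B absorbance after 3 days. GI50 was calculated from the inhibition rate at each concentration.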

T1 sequence (P50613 whole entry): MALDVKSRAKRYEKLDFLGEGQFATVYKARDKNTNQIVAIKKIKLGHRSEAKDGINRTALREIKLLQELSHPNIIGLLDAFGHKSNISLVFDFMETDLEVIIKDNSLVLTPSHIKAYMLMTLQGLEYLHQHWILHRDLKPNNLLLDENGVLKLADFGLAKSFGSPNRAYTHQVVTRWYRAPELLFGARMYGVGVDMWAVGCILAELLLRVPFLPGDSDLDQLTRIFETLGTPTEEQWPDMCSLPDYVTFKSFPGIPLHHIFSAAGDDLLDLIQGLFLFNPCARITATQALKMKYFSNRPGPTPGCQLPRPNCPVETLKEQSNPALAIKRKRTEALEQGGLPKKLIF
T1 sequence (P51946 whole entry partner): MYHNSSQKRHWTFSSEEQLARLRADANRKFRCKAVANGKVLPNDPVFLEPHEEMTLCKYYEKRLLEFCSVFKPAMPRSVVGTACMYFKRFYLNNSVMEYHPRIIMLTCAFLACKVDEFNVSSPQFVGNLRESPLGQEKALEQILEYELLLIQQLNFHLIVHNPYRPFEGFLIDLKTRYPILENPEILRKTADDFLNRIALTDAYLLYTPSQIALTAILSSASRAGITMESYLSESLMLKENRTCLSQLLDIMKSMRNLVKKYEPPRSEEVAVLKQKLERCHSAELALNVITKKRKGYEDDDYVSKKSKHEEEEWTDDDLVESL
T1 sequence (P51948 whole entry partner): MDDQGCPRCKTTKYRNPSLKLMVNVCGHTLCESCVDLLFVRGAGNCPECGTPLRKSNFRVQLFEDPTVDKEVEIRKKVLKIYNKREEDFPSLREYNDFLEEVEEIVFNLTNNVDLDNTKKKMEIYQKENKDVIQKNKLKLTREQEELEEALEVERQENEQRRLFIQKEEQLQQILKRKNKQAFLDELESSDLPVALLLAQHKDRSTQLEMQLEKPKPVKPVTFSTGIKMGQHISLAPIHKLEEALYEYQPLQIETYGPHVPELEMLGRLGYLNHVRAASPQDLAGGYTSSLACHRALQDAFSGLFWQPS

Row | Compound | Ki (CDK7) [nM] | Ki (CDK2) [nM] | Ki (PLK1) [nM] | GI50 [1] [nM]
1 | COc1ccc(C)c(F)c1NC(=O)N1Cc2c(NC(=O)C3([Si](C)(C)C)CCC3)n[nH]c2C1(C)C [IV-689, N-(2-Fluoro-6-methoxy-3-methylphenyl)-6,6-dimethyl-3-[1-(trimethylsilyl)cyclobutanecarboxamido]-4,6-dihydropyrrolo[3,4-c]pyrazole-5(1H)-carboxamide] | ≤ 50 | ≥ 1000 | ≥ 5000 | ≤ 100
2 | Cc1ccc(F)c(NC(=O)N2Cc3c(NC(=O)C4([Si](C)(C)C)CCC4)n[nH]c3C2(C)C)c1F [IV-609, N-(2,6-Difluoro-3-methylphenyl)-6,6-dimethyl-3-[1-(trimethylsilyl)cyclobutanecarboxamido]-4,6-dihydropyrrolo[3,4-c]pyrazole-5(1H)-carboxamide] | ≤ 50 | ≥ 1000 | ≥ 5000 | ≤ 100
3 | Cc1ccc(Cl)c(NC(=O)N2Cc3c(NC(=O)C4([Si](C)(C)C)CCC4)n[nH]c3C2(C)C)c1F [IV-629, N-(6-Chloro-2-fluoro-3-methylphenyl)-6,6-dimethyl-3-[1-(trimethylsilyl)cyclobutanecarboxamido]-4,6-dihydropyrrolo[3,4-c]pyrazole-5(1H)-carboxamide] | ≤ 50 | ≥ 1000 | ≥ 5000 | ≤ 100
4 | CC1(C)c2[nH]nc(NC(=O)C3([Si](C)(C)C)CC3)c2CN1C(=O)Nc1c(F)ccc2ccoc12 [III-1049, N-(6-Fluorobenzofuran-7-yl)-6,6-dimethyl-3-[1-(trimethylsilyl)cyclopropanecarboxamido]-4,6-dihydropyrrolo[3,4-c]pyrazole-5 (1H)-carboxamide] | ≤ 50 | ≥ 1000 | ≥ 5000 | ≤ 100

The next lines start with the values.

Row | Ki (CDK7) [nM] | Ki (CDK2) [nM] | Ki (PLK1) [nM] | GI50 [1] [nM] | Compound
5 | ≤ 50 | ≥ 1000 | ≥ 5000 | ≤ 100 | COc1cc(F)c(NC(=O)N2Cc3c(NC(=O)C4([Si](C)(C)C)CCC4)n[nH]c3C2(C)C)c(F)c1 [IV-615, N-(2,6-Difluoro-4-methoxyphenyl)-6,6-dimethyl-3-[1-(trimethylsilyl)cyclobutanecarboxamido]-4,6-dihydropyrrolo[3,4-c]pyrazole-5(1H)-carboxamide]
6 | ≤ 50 | ≥ 1000 | ≥ 5000 | ≤ 100 | CCc1cccc(F)c1NC(=O)N1Cc2c(NC(=O)C(C)(C)[Si](C)(C)C)n[nH]c2C1(C)C [II-137, N-(2-Ethyl-6-fluorophenyl)-6,6-dimethyl-3-[2-methyl-2-(trimethylsilyl)propanamido]-4,6-dihydropyrrolo[3,4-c]pyrazole-5(1H)-carboxamide]
7 | ≤ 50 | ≥ 1000 | ≥ 5000 | ≤ 100 | [2H]C([2H])([2H])Oc1cccc(F)c1NC(=O)N1Cc2c(NC(=O)C3([Si](C)(C)C)CCC3)n[nH]c2C1(C)C [IV-177, N-[2-Fluoro-6-(methoxy-d3)phenyl]-6,6-dimethyl-3-[1-(trimethylsilyl)cyclobutanecarboxamido]-4,6-dihydropyrrolo[3,4-c]pyrazole-5(1H)-carboxamide]
8 | ≤ 50 | ≥ 1000 | ≥ 5000 | ≤ 100 | CC1(C)c2[nH]nc(NC(=O)C3([Si](C)(C)C)CCC3)c2CN1C(=O)Nc1c(F)cccc1C#N [IV-185, N-(2-Cyano-6-fluorophenyl)-6,6-dimethyl-3-[1-(trimethylsilyl)cyclobutanecarboxamido]-4,6-dihydropyrrolo[3,4-c]pyrazole-5 (1H)-carboxamide]
9 | ≤ 50 | ≥ 1000 | ≥ 5000 | ≤ 100 | CCc1ccccc1NC(=O)N1Cc2c(NC(=O)C3([Si](C)(C)C)CCC3)n[nH]c2C1(C)C [IV-27, N-(2-Ethylphenyl)-6,6-dimethyl-3-[1-(trimethylsilyl)cyclobutanecarboxamido]-4,6-dihydropyrrolo[3,4-c]pyrazole-5(1H)-carboxamide]
